# Reference: patent publication US20240376097A1, “BCL-2 Inhibitor” (BeiGene Ltd., priority 2020, published 2024)
# Read-outs that look alike come from different tables or passages of the source.
# How the values were obtained:
# [1] = tested on: BCL-2 G101V knock-in cell line H96 (derive from RS4;11); test: Bcl 2-G101V Knock-In RS4;11 Cell Proliferation Assay; type: cell-based; conditions: Homo sapiens, RS4;11 Bcl-2 G101V knock-in clone H96, 48 hrs, CellTiter-GLO, read-out: Cellular proliferation assay (IC50, nM) RS4
# How it was run: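 H96, a CRISPR-generated RS4;11 clone carrying BCL2-G101V knock-in (WES/RNA-seq validated), seeded 50,000 per well and exposed 48 h at 37 °C to 10-point dilutions topping at 1 or 10 μM. Viability by CellTiter-Glo luminescence; mean IC50.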
# [2] = biological target: Recombinant human Bcl-2 protein (Homo sapiens (Human), UniProt P10415); test: Bcl-2 TR-FRET Assay; type: binding
# How it was run: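 Compounds were pre-incubated with 0.05 nM recombinant Bcl-2 for 0.5 h at room temperature in potassium phosphate buffer, pH 7.5. FITC-Bak peptide (0.5 nM) and Tb-cryptate antibody were then added for 1 h. Percent inhibition from TR-FRET signals gave IC50 values.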
# [3] = tested on: recombinant human Bcl-2-G101V protein; test: Bcl-2-G101V TR-FRET Assay; type: binding; conditions: ratio of biochemical IC50 Bcl-2 G101V / Bcl-2 WT
# How it was run: (§1)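 TR-FRET read at excitation 337 nm with emission at 490 nm and 520 nm. Inhibition of Bcl-2-G101V binding to its ligand across increasing compound concentrations was calculated from the 490/520 nm fluorescence ratio, and IC50 values came from four-parameter logistic fits.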
# [4] = biological target: recombinant human Bcl-2-G101V protein (Homo sapiens (Human), UniProt P10415, G101V); test: Bcl-2-G101V TR-FRET Assay; type: binding; conditions: Bcl-2 G101V mutant, TR-FRET; read-out: Biochemical assay (IC50, nM) Bcl-2 G101V
# How it was run: as §1
# [5] = biological target: recombinant human Bcl-2 D103Y protein (Homo sapiens (Human), UniProt P10415, D103Y); test: Bcl-2-D103Y Biochemical Assay (TR-FRET); type: binding; conditions: for IC50: TR-FRET, FITC labeled Bak peptide; for Ratio of Bcl-2 D103Y/Bcl-2 WT: ratio of IC50
# How it was run: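 Recombinant human Bcl-2 D103Y binding to its ligand measured by TR-FRET (ex 337 nm, em 490/520 nm) with increasing compound concentrations. Percent inhibition from the 490/520 nm ratio; IC50 from four-parameter logistic fit.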
# [6] = tested on: RS4;11 (BCL-2 dependent acute lymphoblastic leukemia cell line); test: RS4;11 Cell Proliferation Assay; type: cell-based; conditions: Homo sapiens, RS4-11, RS4;11 cells, read-out: Cellular proliferation assay (IC50, nM) RS4
# How it was run: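 RS4;11 cells, 50,000 per well in RPMI-1640 with 10% FBS, treated 48 h at 37 °C with a 10-point dilution series topping at 1 μM. Viability read by CellTiter-Glo ATP luminescence; mean IC50 reported.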
# [7] = Bcl-2 wild type, TR-FRET, read-out: Biochemical assay (IC50, nM) Bcl-2 WT
# [8] = wild type Bcl-2, unit inferred, read-out: Bcl-2 WT
structure (smiles),measurement,setting,value
"COc1cc(CN2CCN(C3CC4(CCN(c5ccc(C(=O)NS(=O)(=O)c6ccc(NC[C@H]7CC[C@](C)(O)CC7)c([N+](=O)[O-])c6)c(Oc6cnc7[nH]ccc7c6)c5)CC4)C3)C(c3ccccc3C(C)C)C2)ccc1F (stereo partly shown) [Example 121, 2-((1H-pyrrolo[2,3-b]pyridin-5-yl)oxy)-4-(2-(4-(4-fluoro-3-methoxybenzyl)-2-(2-isopropylphenyl)piperazin-1-yl)-7-azaspiro[3.5]nonan-7-yl)-N-((4-((((1r,4r)-4-hydroxy-4-methylcyclohexyl)methyl)amino)-3-nitrophenyl)sulfonyl)benzamide]",IC50,[1],1.13 nM
same,IC50,[2]; [7],0.28 nM
same,IC50,[2]; [8],0.28 nM
same,Ratio of Bcl-2 G101V/WT,[3],3.8
same,IC50,[4],1.1 nM
same,IC50,[5],0.42 nM
same,Ratio of Bcl-2 D103Y/Bcl-2 WT,[5],1.5
same,IC50,[6],0.24 nM
"CC(C)c1ccccc1C1CN(Cc2ccc3c(c2)OCO3)CCN1C1CC2(CCN(c3ccc(C(=O)NS(=O)(=O)c4ccc(NC[C@H]5CC[C@](C)(O)CC5)c([N+](=O)[O-])c4)c(Oc4cnc5[nH]ccc5c4)c3)CC2)C1 (stereo partly shown) [Example 122, 2-((1H-pyrrolo[2,3-b]pyridin-5-yl)oxy)-4-(2-(4-(benzo[d][1.3]dioxol-5-ylmethyl)-2-(2-isopropylphenyl)piperazin-1-yl)-7-azaspiro[3.5]nonan-7-yl)-N-((4-((((1r,4r)-4-hydroxy-4-methylcyclohexyl)methyl)amino)-3-nitrophenyl)sulfonyl)benzamide]",IC50,[1],2.2 nM
same,IC50,[2]; [7],0.19 nM
same,IC50,[2]; [8],0.19 nM
same,Ratio of Bcl-2 G101V/WT,[3],5
same,IC50,[4],0.92 nM
same,IC50,[5],0.47 nM
same,Ratio of Bcl-2 D103Y/Bcl-2 WT,[5],2.5
same,IC50,[6],0.3 nM
"COc1ccc(CN2CCN(C3CC4(CCN(c5ccc(C(=O)NS(=O)(=O)c6ccc(NC[C@H]7CC[C@](C)(O)CC7)c([N+](=O)[O-])c6)c(Oc6cnc7[nH]cc(Cl)c7c6)c5)CC4)C3)[C@H](c3ccccc3C(C)C)C2)cc1 [Example 123, 2-((3-chloro-1H-pyrrolo[2,3-b]pyridin-5-yl)oxy)-N-((4-((((1r,4r)-4-hydroxy-4-methylcyclohexyl)methyl)amino)-3-nitrophenyl)sulfonyl)-4-(2-((R)-2-(2-isopropylphenyl)-4-(4-methoxybenzyl)piperazin-1-yl)-7-azaspiro[3.5]nonan-7-yl) benzamide]",IC50,[1],1.1 nM
same,IC50,[2]; [7],0.54 nM
same,IC50,[2]; [8],0.54 nM
same,Ratio of Bcl-2 G101V/WT,[3],3.3
same,IC50,[4],1.8 nM
same,IC50,[5],0.71 nM
same,Ratio of Bcl-2 D103Y/Bcl-2 WT,[5],1.3
same,IC50,[6],0.25 nM
"CCOc1cc(CN2CCN(C3CC4(CCN(c5ccc(C(=O)NS(=O)(=O)c6ccc(NC[C@H]7CC[C@](C)(O)CC7)c([N+](=O)[O-])c6)c(Oc6cnc7[nH]ccc7c6)c5)CC4)C3)C(c3ccccc3C(C)C)C2)ccc1OC (stereo partly shown) [Example 124, 2-((1H-pyrrolo[2,3-b]pyridin-5-yl)oxy)-4-(2-(4-(3-ethoxy-4-methoxybenzyl)-2-(2-isopropylphenyl)piperazin-1-yl)-7-azaspiro[3.5]nonan-7-yl)-N-((4-((((1r,4r)-4-hydroxy-4-methylcyclohexyl)methyl)amino)-3-nitrophenyl)sulfonyl)benzamide]",IC50,[1],1.2 nM
same,IC50,[2]; [7],0.15 nM
same,IC50,[2]; [8],0.15 nM
same,Ratio of Bcl-2 G101V/WT,[3],3.4
same,IC50,[4],0.51 nM
same,IC50,[5],0.21 nM
same,Ratio of Bcl-2 D103Y/Bcl-2 WT,[5],1.4
same,IC50,[6],0.24 nM
"COc1ccc(CN2CCN(C3CC4(CCN(c5ccc(C(=O)NS(=O)(=O)c6ccc(NC[C@H]7CC[C@](C)(O)CC7)c([N+](=O)[O-])c6)c(Oc6cc7c(F)c[nH]c7nc6C)c5)CC4)C3)[C@H](c3ccccc3C(C)C)C2)cc1 [Example 125, 2-((3-fluoro-6-methyl-1H-pyrrolo [2,3-b]pyridin-5-yl)oxy)-N-((4-((((1r,4r)-4-hydroxy-4-methylcyclohexyl)methyl)amino)-3-nitrophenyl)sulfonyl)-4-(2-((R)-2-(2-isopropylphenyl)-4-(4-methoxybenzyl)piperazin-1-yl)-7-azaspiro[3.5]nonan-7-yl) benzamide]",IC50,[1],0.68 nM
same,IC50,[2]; [7],0.3 nM
same,IC50,[2]; [8],0.3 nM
same,Ratio of Bcl-2 G101V/WT,[3],2.4
same,IC50,[4],0.71 nM
same,IC50,[5],0.33 nM
same,Ratio of Bcl-2 D103Y/Bcl-2 WT,[5],1.1
same,IC50,[6],0.15 nM
CC(C)c1ccccc1C1CN(Cc2ccccn2)CCN1C1CC2(CCN(c3ccc(C(=O)NS(=O)(=O)c4ccc(NC[C@H]5CC[C@](C)(O)CC5)c([N+](=O)[O-])c4)c(Oc4cnc5[nH]ccc5c4)c3)CC2)C1 (stereo partly shown) [Example 131],IC50,[1],4.34 nM
same,IC50,[2]; [7],0.05 nM
same,IC50,[2]; [8],0.05 nM
same,Ratio of Bcl-2 G101V/WT,[3],10
same,IC50,[4],0.51 nM
same,IC50,[5],0.29 nM
same,Ratio of Bcl-2 D103Y/Bcl-2 WT,[5],5.7
same,IC50,[6],0.57 nM
"COc1ccc(CN2CCN(C3CC4(CCN(c5ccc(C(=O)NS(=O)(=O)c6ccc(NC[C@H]7CC[C@](C)(O)CC7)c([N+](=O)[O-])c6)c(Oc6cnc7[nH]ccc7c6)c5)CC4)C3)C(c3ccccc3C(C)C)C2)cc1C#N (stereo partly shown) [Example 132, 2-((1H-pyrrolo[2,3-b]pyridin-5-yl)oxy)-4-(2-(4-(3-cyano-4-methoxybenzyl)-2-(2-isopropylphenyl)piperazin-1-yl)-7-azaspiro[3.5]nonan-7-yl)-N-((4-((((1r,4r)-4-hydroxy-4-methylcyclohexyl)methyl)amino)-3-nitrophenyl)sulfonyl)benzamide]",IC50,[1],2.05 nM
same,IC50,[2]; [7],0.26 nM
same,IC50,[2]; [8],0.26 nM
same,Ratio of Bcl-2 G101V/WT,[3],3.5
same,IC50,[4],0.92 nM
same,IC50,[5],0.47 nM
same,Ratio of Bcl-2 D103Y/Bcl-2 WT,[5],1.3
same,IC50,[6],0.31 nM
"COc1ccc(CN2CCN(C3CC4(CCN(c5ccc(C(=O)NS(=O)(=O)c6ccc(NC[C@H]7CC[C@](C)(O)CC7)c([N+](=O)[O-])c6)c(Oc6cnc7[nH]ccc7c6)c5)CC4)C3)C(c3ccccc3C(C)C)C2)cc1F (stereo partly shown) [Example 134, 2-((1H-pyrrolo[2,3-b]pyridin-5-yl)oxy)-4-(2-(4-(3-fluoro-4-methoxybenzyl)-2-(2-isopropylphenyl)piperazin-1-yl)-7-azaspiro[3.5]nonan-7-yl)-N-((4-((((1r,4r)-4-hydroxy-4-methylcyclohexyl)methyl)amino)-3-nitrophenyl)sulfonyl)benzamide]",IC50,[1],3.1 nM
same,IC50,[2]; [7],0.35 nM
same,IC50,[2]; [8],0.35 nM
same,Ratio of Bcl-2 G101V/WT,[3],3.8
same,IC50,[4],1.3 nM
same,IC50,[5],0.67 nM
same,Ratio of Bcl-2 D103Y/Bcl-2 WT,[5],1.9
same,IC50,[6],0.4 nM
"COc1ccc(CN2CCN(C3CC4(CCN(c5ccc(C(=O)NS(=O)(=O)c6ccc(NC[C@H]7CC[C@](C)(O)CC7)c([N+](=O)[O-])c6)c(Oc6cnc7[nH]ccc7c6)c5)CC4)C3)C(c3ccccc3C(C)C)C2)cc1C (stereo partly shown) [Example 144, 2-((1H-pyrrolo[2,3-b]pyridin-5-yl)oxy)-N-((4-((((1r,4r)-4-hydroxy-4-methylcyclohexyl)methyl)amino)-3-nitrophenyl)sulfonyl)-4-(2-(2-(2-isopropylphenyl)-4-(4-methoxy-3-methylbenzyl)piperazin-1-yl)-7-azaspiro[3.5]nonan-7-yl)benzamide]",IC50,[1],2.8 nM
same,IC50,[2]; [7],0.26 nM
same,IC50,[2]; [8],0.26 nM
same,Ratio of Bcl-2 G101V/WT,[3],4.1
same,IC50,[4],1.1 nM
same,IC50,[5],0.47 nM
same,Ratio of Bcl-2 D103Y/Bcl-2 WT,[5],1.8
same,IC50,[6],0.463 nM
COc1cc(CN2CCN(C3CC4(CCN(c5ccc(C(=O)NS(=O)(=O)c6ccc(NC[C@H]7CC[C@](C)(O)CC7)c([N+](=O)[O-])c6)c(Oc6cnc7[nH]ccc7c6)c5)CC4)C3)C(c3ccccc3C(C)C)C2)cc(C)c1OC (stereo partly shown) [Example 158],IC50,[1],1.52 nM
same,IC50,[2]; [7],0.27 nM
same,IC50,[2]; [8],0.27 nM
same,Ratio of Bcl-2 G101V/WT,[3],2.8
same,IC50,[4],0.75 nM
same,IC50,[5],0.37 nM
same,Ratio of Bcl-2 D103Y/Bcl-2 WT,[5],1.3
same,IC50,[6],0.322 nM
C#Cc1ccc(CN2CCN(C3CC4(CCN(c5ccc(C(=O)NS(=O)(=O)c6ccc(NC[C@H]7CC[C@](C)(O)CC7)c([N+](=O)[O-])c6)c(Oc6cnc7[nH]ccc7c6)c5)CC4)C3)C(c3ccccc3C(C)C)C2)cc1OC (stereo partly shown) [Example 162],IC50,[1],2.04 nM
same,IC50,[2]; [7],0.38 nM
same,IC50,[2]; [8],0.38 nM
same,Ratio of Bcl-2 G101V/WT,[3],3.8
same,IC50,[4],1.5 nM
same,IC50,[5],0.61 nM
same,Ratio of Bcl-2 D103Y/Bcl-2 WT,[5],1.6
same,IC50,[6],0.373 nM
